Converted amounts (≈) assume the structure as drawn. Read-outs that look alike come from different tables or passages of the source. Blank lines part the entries; values can stand above or below the compound they belong to.
Experiments:
[1] = Hygroscopicity (moisture absorption on standing under relative humidity); format: physicochemical
Procedure: (§1) As examples of crystalline polymorphs other than the crystalline polymorph of the present invention, there are the crystalline polymorph (crystalline form γ) having strong diffraction peaks (diffraction angle: 2θ±0.1°) at 18.1, 19.7, 20.3, 21.2 and 22.4° and the crystalline polymorph (crystalline form […]) having strong diffraction peaks (diffraction angle: 2θ±0.1°) at 10.2, 13.2, 17.6, 19.8 and 20.6° in powder X-ray diffraction pattern. […] Thus, the crystalline polymorph of the present invention has an excellent low hygroscopicity and good storage. […] Thus, the crystalline polymorph of the present invention is favorable to oral administration and has a favorable efficiency in preparing liquid preparations such as injections.

Solubility in water = format: physicochemical; conditions: in water (37° C.)
Procedure: as §1

β2-Adrenoceptor = molecular target: T1, β2-Adrenoceptor (Rattus norvegicus, UniProt P10608); experiment: β2-Adrenoceptor stimulating effect: spontaneous contractions of isolated pregnant rat uterus (Magnus method); format: cell-based; conditions: isolated uterus of pregnant SD rats (day 21), cumulative addition every 5 minutes, 37° C.; read-out: 50% inhibitory drug concentration (EC50 value), uterine contractions
T1 construct: The uteri of pregnant SD rats (pregnancy day of 21) were isolated; from tissue; host or cells: isolated uterus (longitudinal myometrial preparations) of pregnant SD rats, day 21
T1 sequence (P10608 whole entry): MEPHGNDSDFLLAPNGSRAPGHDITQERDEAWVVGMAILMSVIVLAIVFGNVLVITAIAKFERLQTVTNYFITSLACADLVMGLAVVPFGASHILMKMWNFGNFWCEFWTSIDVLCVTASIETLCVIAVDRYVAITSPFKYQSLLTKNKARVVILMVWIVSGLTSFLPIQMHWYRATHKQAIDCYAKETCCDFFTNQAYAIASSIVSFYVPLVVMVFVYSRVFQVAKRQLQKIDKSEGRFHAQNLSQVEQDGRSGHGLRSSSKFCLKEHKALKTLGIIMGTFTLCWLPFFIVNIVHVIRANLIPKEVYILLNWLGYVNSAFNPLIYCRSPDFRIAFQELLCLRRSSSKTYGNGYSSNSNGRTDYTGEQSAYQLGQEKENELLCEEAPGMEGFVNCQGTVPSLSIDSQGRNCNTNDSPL
Procedure: The uteri of pregnant SD rats (pregnancy day of 21) were isolated, and longitudinal preparations of approximately 15 mm in length and approximately 5 mm in width free from the basal plate were prepared. The experiment was conducted according to the Magnus method. The preparations with a tension of 1 g were exposed to Locke-Ringer solution maintained at 37° C. and gassed with a mixture of 95% of oxygen and 5% of carbon dioxide. Spontaneous contractions of the myometrium were isometrically measured with a force-displacement transducer and recorded by a rectigram. 2-[4-[2-[[(1S, 2R)-2-Hydroxy-2-(4-hydroxyphenyl)-1-methylethyl]amino]ethyl]-phenoxy]acetic acid was cumulatively added to the Magnus bath every 5 minutes. The drug efficacy was evaluated by comparing the sum of uterine contractions during 5 minutes after the addition of the drug with that during 5 minutes before the addition of the drug which was expressed as 100%.

[2] = Drug absorption on oral administration; format: in vivo; conditions: orally administered
Procedure: as §1

SMILES: C[C@H](NCCc1ccc(OCC(=O)O)cc1)[C@H](O)c1ccc(O)cc1 [crystalline form γ, 2-[4-[2-[[(1S,2R)-2-Hydroxy-2-(4-hydroxyphenyl)-1-methyl-ethyl]amino]ethyl]phenoxy]acetic Acid (Crystalline Form γ)]
moisture absorption (hygroscopicity) ([1]; conditions not given): easily absorb moisture to convert into their hydrates

solubility (Solubility in water): 1800 µg/mL (≈ 5.21 mM)
SMILES: C[C@H](NCCc1ccc(OCC(=O)O)cc1)[C@H](O)c1ccc(O)cc1 [crystalline form δ, 2-[4-[2-[[(1S,2R)-2-Hydroxy-2-(4-hydroxyphenyl)-1-methyl-ethyl]amino]ethyl]phenoxy]acetic Acid (Crystalline Form δ)]

EC50 (β2-Adrenoceptor): 31 nM
SMILES: C[C@H](NCCc1ccc(OCC(=O)O)cc1)[C@H](O)c1ccc(O)cc1 [2-[4-[2-[[(1S,2R)-2-hydroxy-2-(4-hydroxy-phenyl)-1-methylethyl]amino]ethyl]phenoxy]acetic acid]

solubility (Solubility in water; read-out: solubility): 2700 µg/mL (≈ 7.82 mM)
moisture absorption (hygroscopicity) ([1]; allowed to stand for 10 days under relative humidities of 51-93%): does not absorb moisture
drug absorption [2]: excellent drug absorption
SMILES: CC(NCCc1ccc(OCC(=O)O)cc1)C(O)c1ccc(O)cc1 [crystalline form α, 2-[4-[2-[[(1S,2R)-2-Hydroxy-2-(4-hydroxyphenyl)-1-methyl-ethyl]amino]ethyl]phenoxy]acetic Acid (Crystalline Form α)]
